Experimental data as given in publication PMC5428354, “Screening of a natural compound library identifies emodin, a natural compound from Rheum palmatum Linn that inhibits DPP4” (PeerJ, 2017).
Several values for one entry are separate records, joined by “and”; a condition that tells them apart may be missing. Equal values may be shown once. Read-outs that look alike come from different tables or passages of the source.

Legend:
plasma DPP4 activity = target: T1, plasma DPP4 activity (Mus musculus, UniProt P28843); test: Plasma DPP4 activity after oral emodin (DPP4-Glo assay kit); type: in vivo, mice; conditions: individual animals; for plasma DPP4 activity, raw signal: Balb/c mice; for DPP4 activity, raw signal: ob/ob mice
T1 construct: followed by plasma collection at different time points to measure DPP4 activity in the blood; from tissue; host or cells: mouse plasma (Balb/c and ob/ob mice)
T1 sequence (P28843 37-760 limits assumed): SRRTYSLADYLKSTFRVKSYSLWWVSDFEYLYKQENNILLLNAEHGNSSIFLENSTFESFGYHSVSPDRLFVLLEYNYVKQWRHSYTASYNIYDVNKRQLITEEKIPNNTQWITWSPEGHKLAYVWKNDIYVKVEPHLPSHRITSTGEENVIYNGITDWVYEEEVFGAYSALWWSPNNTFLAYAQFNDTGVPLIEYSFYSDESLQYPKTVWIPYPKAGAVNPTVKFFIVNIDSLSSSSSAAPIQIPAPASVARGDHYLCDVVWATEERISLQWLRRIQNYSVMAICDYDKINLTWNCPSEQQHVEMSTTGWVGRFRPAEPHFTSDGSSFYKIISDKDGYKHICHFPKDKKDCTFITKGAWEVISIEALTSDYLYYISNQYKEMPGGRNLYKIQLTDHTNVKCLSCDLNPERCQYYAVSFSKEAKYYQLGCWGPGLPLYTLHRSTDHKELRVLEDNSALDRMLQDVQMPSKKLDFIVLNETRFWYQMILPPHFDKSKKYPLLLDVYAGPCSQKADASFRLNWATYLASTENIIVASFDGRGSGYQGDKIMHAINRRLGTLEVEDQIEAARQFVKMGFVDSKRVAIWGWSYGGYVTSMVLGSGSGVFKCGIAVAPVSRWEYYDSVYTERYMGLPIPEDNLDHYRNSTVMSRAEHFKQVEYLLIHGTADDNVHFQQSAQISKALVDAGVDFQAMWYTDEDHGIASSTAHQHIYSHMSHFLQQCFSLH
Procedure: Balb/c mice (male, six weeks) and ob/ob (-/-) mice (male, six weeks) were purchased from the Shanghai SLAC Laboratory Animal Co. Ltd. (Shanghai, China) and maintained in an air-conditioned room at 20–25 °C under a 12 h dark/light cycle and fed certified standard chow and tap water ad libitum. Experiments were conducted in compliance with the Guide for the Care and Use of Laboratory Animals. Mice were orally administered with emodin (3, 10, or 30 mg /kg) and had their blood collected at 0.5, 1, 2, and 4 h after emodin treatment. The samples were subjected to plasma isolation immediately after collection. Plasma samples were tested for DPP4 activity with a DPP4-Glo assay kit (Promega, Beijing, China) according to the manufacturer’s protocol. The experimental protocol was approved by Animal Care and Use Committee of Xiamen University(XM2015030514).
To test the inhibitory activity of emodin on DPP4 in vivo, an animal experiment was conducted by oral administration of emodin (3, 10 and 30 mg/kg, P.O., n = 5) to Balb/c mice, followed by plasma collection at different time points to measure DPP4 activity in the blood. Plasma samples were collected at 0, 0.5, 1, 2 and 4 h after the oral dose of emodin, and plasma DPP4 activity was measured with a DPP4-Glo assay kit. […] The lowest does of emodin (3 mg/kg) decreased plasma DPP4 activity from baseline, although these levels rebounded after 1 h, whereas 10 and 30 mg/kg doses of emodin decreased plasma DPP4 activity and maintained the lower levels until 2 h post-treatment (Fig. 4). This dose-dependent manner is probably due to the pharmacokinetics of emodin, and 10 and 30 mg/kg have maximized the pharmacokinetic coverage, while 3 mg/kg emodin is only sufficient to maintain 1 h DPP4 inhibition in vivo. In the subsequent experiment, emodin (30 mg/kg, P.O.) was administered on Balb/C mice (n = 5) or ob/ob (-/-) mice (n = 5). The DPP4 activity, blood glucoselevels and GLP-1 activity were tested 0, 1, 2, 4, 8 h after administration. […] This downregulation maintained 2 h in Balb/C mice, and 4 h in ob/ob (-/-) mice, which rebounded afterwards (Fig. 5A). […] Plasma GLP-1 activity was also measured.

GLP-1 [1] = test: Plasma GLP-1 activity after oral emodin; type: in vivo, mice; parameters: unit not given here; conditions: 30 mg/kg P.O., C57BL/6 (head), individual animals
DPP4 = DPP4 (Homo sapiens, UniProt P27487); test: DPP4 activity assay (DPP4 inhibitor screening assay kit, Cayman); type: biochemical; parameters: purchased Cayman Chemical, Ann Arbor, MI, USA; conditions: for remaining activity at 10 µM: control mean 100.0;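 on all read-outs here: fluorescence read at excitation 360 nm and emission 460 nm after the enzyme reaction ran 30 min at 37 °C in a 96-well plate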
Chain of DPP4 (P27487 whole entry): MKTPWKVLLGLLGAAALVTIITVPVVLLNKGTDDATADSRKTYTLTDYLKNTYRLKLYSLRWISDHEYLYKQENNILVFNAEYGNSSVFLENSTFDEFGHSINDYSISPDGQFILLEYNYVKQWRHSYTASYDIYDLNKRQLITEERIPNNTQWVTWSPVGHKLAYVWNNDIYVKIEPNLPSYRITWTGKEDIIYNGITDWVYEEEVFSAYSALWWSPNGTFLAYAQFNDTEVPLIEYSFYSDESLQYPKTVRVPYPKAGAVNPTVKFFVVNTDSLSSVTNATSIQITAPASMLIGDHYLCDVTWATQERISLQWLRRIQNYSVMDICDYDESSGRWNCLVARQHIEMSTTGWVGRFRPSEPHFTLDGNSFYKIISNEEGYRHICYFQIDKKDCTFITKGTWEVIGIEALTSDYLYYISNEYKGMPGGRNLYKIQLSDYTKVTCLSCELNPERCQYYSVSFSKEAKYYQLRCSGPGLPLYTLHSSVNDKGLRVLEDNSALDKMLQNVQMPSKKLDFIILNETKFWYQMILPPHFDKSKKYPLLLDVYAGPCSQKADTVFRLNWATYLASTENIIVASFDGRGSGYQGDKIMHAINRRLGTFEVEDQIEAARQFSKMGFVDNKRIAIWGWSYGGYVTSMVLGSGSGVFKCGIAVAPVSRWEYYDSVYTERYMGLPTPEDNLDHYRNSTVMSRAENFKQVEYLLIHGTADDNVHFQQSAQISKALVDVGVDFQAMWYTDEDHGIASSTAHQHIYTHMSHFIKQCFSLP

DPP9 = target: T2, DPP9 (Homo sapiens, UniProt Q86TI2); test: DPP9 activity assay (BPS Bioscience kit); type: biochemical; conditions: tested at 100 µM
T2 construct: purchased BPS Bioscience 800209
T2 sequence (Q86TI2 whole entry): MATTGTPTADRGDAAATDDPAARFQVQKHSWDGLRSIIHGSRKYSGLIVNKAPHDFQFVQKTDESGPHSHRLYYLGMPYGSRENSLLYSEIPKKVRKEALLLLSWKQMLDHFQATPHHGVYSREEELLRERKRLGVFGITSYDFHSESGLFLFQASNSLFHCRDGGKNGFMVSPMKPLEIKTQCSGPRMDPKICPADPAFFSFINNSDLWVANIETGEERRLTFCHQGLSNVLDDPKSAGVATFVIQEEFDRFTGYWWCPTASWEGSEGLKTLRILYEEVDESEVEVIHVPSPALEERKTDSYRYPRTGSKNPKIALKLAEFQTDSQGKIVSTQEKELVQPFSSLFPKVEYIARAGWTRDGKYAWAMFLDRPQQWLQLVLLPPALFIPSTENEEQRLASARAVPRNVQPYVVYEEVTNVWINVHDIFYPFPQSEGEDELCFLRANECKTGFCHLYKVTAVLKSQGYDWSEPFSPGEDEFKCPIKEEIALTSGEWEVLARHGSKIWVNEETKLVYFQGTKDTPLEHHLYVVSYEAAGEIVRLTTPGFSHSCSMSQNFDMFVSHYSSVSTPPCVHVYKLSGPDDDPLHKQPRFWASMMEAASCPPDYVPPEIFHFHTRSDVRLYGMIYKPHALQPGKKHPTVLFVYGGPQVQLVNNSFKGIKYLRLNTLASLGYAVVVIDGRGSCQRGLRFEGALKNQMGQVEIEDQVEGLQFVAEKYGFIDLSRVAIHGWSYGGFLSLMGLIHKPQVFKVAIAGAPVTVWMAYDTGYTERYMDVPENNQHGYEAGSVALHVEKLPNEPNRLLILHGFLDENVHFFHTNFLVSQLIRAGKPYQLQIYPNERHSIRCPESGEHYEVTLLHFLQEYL
Procedure: (§1) A DPP9 assay kit was purchased from BPS Bioscience (Cat# 800209), and the assay protocol was followed to test for inhibitory activity against DPP9. Briefly, DPP substrate 1 was diluted to make a 100 µM stock solution, and DPP9 protein was diluted in DPP assay buffer to 2 ng/µl (20 ng/reaction). For the tested compounds, 10 µl of diluted DPP9 protein, 5 µl of diluted DPP substrate 1, 84 µl of DPP assay buffer and 1 µl of inhibitor were added into the assay system for a total volume of 100 µl. […]

DPP8 = DPP8 (Homo sapiens, UniProt Q6V1X1); test: DPP8 activity assay (BPS Bioscience kit); type: biochemical;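 on DPP8 assay, Emission (450 nm): fluorescence read with excitation at 365 nm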
Chain of DPP8 (Q6V1X1 whole entry): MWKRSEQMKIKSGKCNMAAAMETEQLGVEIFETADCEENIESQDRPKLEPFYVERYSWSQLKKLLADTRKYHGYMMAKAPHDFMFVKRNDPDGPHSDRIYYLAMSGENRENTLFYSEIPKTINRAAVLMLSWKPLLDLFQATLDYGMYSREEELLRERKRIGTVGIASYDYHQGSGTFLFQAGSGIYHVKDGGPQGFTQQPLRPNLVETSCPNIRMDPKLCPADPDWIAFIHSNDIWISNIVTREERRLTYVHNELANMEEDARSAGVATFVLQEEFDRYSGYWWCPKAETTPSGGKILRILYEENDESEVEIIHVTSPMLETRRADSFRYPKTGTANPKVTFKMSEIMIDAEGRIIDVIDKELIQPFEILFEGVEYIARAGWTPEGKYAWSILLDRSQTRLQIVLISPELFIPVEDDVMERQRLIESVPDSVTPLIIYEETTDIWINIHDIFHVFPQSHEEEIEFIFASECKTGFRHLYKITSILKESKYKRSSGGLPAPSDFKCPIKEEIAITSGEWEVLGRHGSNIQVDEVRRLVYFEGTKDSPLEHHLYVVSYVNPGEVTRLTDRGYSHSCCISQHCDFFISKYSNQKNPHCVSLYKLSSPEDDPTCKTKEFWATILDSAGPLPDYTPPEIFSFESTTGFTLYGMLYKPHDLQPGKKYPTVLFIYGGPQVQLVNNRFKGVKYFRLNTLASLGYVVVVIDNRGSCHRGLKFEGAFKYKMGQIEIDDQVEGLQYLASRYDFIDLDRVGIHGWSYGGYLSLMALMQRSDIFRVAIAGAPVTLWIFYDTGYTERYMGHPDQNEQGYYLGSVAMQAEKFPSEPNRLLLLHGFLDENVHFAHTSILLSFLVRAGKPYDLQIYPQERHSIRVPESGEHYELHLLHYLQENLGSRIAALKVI
Procedure: as §1, with “DPP8” for “DPP9”, “800208),” for “800209),”, “on DPP8.” for “against DPP9.”, “addedinto” for “added into”, “µl. The reaction mixtures were prepared in duplicate on a 96-well plate and incubated at room temperature for 10 min.” for “µl.”

F344/N rats = test system: F344/N rats; parameters: method as in National Toxicology Program, 2001; Wang & Chung, 1997; conditions: male F344/N rats, 280–2,500 ppm; ref National Toxicology Program, 2001; Wang & Chung, 1997; cited from earlier work
[2] = Blood glucose levels after oral emodin; type: in vivo, mice; parameters: unit not given here; conditions: 30 mg/kg P.O., C57BL/6 (head), individual animals
GLP-1 [3] = test: Plasma GLP-1 activity after oral emodin; type: in vivo, mice; parameters: GLP-1: unit not given here; conditions: 30 mg/kg P.O.; for GLP-1: ob/ob mice, individual animals
Procedure: In the subsequent experiment, emodin (30 mg/kg, P.O.) was administered on Balb/C mice (n = 5) or ob/ob (-/-) mice (n = 5). […] This downregulation maintained 2 h in Balb/C mice, and 4 h in ob/ob (-/-) mice, which rebounded afterwards (Fig. 5A). […] Plasma GLP-1 activity was also measured.

With `Cc1cc(O)c2c(c1)C(=O)c1cc(O)cc(O)c1C2=O` [Emodin] the “plasma DPP4 activity, raw signal” value (plasma DPP4 activity; 3 mg/kg P.O., time 1 h) was 213620 and 121520 and 101880, the “plasma DPP4 activity, raw signal” value (plasma DPP4 activity; 10 mg/kg P.O., time 0.5 h) was 241067 and 195640 and 202693 and the “DPP4 activity, raw signal” value (plasma DPP4 activity; 30 mg/kg P.O., 0 hours (baseline)) was 3401200 and 3668100 and 3319500 and 3595400 and 3453300. For the same compound, the “DPP4 activity, raw signal” value (plasma DPP4 activity; 30 mg/kg P.O., 1 hours) was 3125000 and 3575300 and 2433200 and 3311900 and 2854200, the “DPP4 activity, raw signal” value (plasma DPP4 activity; 30 mg/kg P.O., 2 hours) was 3363400 and 2959900 and 2928700 and 2749100 and the “DPP4 activity, raw signal” value (plasma DPP4 activity; 30 mg/kg P.O., 4 hours) was 3275000 and 2989300 and 2592200 and 2835500 and 2877800. The “DPP4 activity, raw signal” value (plasma DPP4 activity; 30 mg/kg P.O., 8 hours) was 3489100 and 3461100 and 2912800 and 3032000 and 2847400, the “plasma DPP4 activity, raw signal” value (plasma DPP4 activity; 30 mg/kg P.O., time 2 h) was 196547 and 112320 and 158453 and the “plasma DPP4 activity, raw signal” value (plasma DPP4 activity; 30 mg/kg P.O., time 4 h) was 339907 and 323187 and 357187. For the same compound, the GLP-1 (GLP-1 [1]; 0 hours (baseline)) was 2.4022 and 3.1852 and 3.2635 and 2.9242 and 1.0711, the GLP-1 (GLP-1 [1]; 1 hours) was 2.5849 and 2.8981 and 2.4805 and 2.9503 and 0.9928 and the GLP-1 (GLP-1 [1]; 2 hours) was 2.6371 and 2.5849 and 2.9242 and 1.3843 and 2.0629. The GLP-1 (GLP-1 [1]; 4 hours) was 2.6893 and 3.1069 and 3.0808 and 3.2113 and 0.4708, the GLP-1 (GLP-1 [1]; 8 hours) was 1.9063 and 3.394 and 3.3157 and 2.0107 and 0.2881 and the inhibition at 10 µM (DPP4; 10 µM, library screen) was over 50%. The remaining activity at 10 µM (DPP4; 0.5 h, 10 µM, Figure 1A raw data, read-out: DPP4 activity in library screen, Exp 1) was 22%, the remaining activity at 10 µM (DPP4; 0.5 h, 10 µM, Figure 1A raw data, read-out: DPP4 activity in library screen, Exp 2) was 22.6% and the remaining activity at 10 µM (DPP4; 0.5 h, 10 µM, Figure 1A raw data, read-out: DPP4 activity in library screen, Exp 3) was 41.2%. For the same compound, the remaining activity at 10 µM (DPP4; 0.5 h, 10 µM, mean of Exp 1-3, read-out: DPP4 activity in library screen, Mean) was 28.6%, the remaining activity at 0.39 µM (DPP4; 0.5 h, Emodin 0.39 μM, Exp 1-4) was 100% and the remaining activity at 0.78125 µM (DPP4; 0.5 h, Emodin 0.78125 μM, Exp 1-4) was 104%. It also gave a remaining activity at 1.5625 µM (DPP4; 0.5 h, Emodin 1.5625 μM, Exp 1-4) of 97.8%, a remaining activity at 3.125 µM (DPP4; 0.5 h, Emodin 3.125 μM, Exp 1-4) of 83.5% and a remaining activity at 12.5 µM (DPP4; 0.5 h, Emodin 12.5 μM, Exp 1-4) of 37%. For the same compound, the remaining activity at 25 µM (DPP4; 0.5 h, Emodin 25 μM, Exp 1-4) was 25.1%, the remaining activity at 100 µM (DPP4; 0.5 h, Emodin 100 μM, Exp 1-4) was 3.77% and the Ki (DPP4; DPP4, means ± SE) was 0.85 ± 0.06 µM. The IC50 (DPP4; in vitro, means ± SE, read-out: IC50 of DPP4 Inhibition) was 5.7 µM and 5.76 µM, the “activity against DPP9” value (DPP9) was “without inhibiting” and the “DPP8 assay, Emission (450 nm)” value (DPP8; 100 µM, Exp #1-#5) was 25326 and 25088 and 25860 and 47385 and 48311. For the same compound, the DPP8 activity (DPP8; 100 µM, Exp #1-#5, DMSO = Ctrl) was 91.7 % of Ctrl and 91.1 % of Ctrl and 90.2 % of Ctrl and 93.0 % of Ctrl and 89.9 % of Ctrl, the “activity against DPP8” value (DPP8; tested at 100 µM) was “without inhibiting” and the carcinogenic activity (F344/N rats) was “no evidence of carcinogenic activity”. The Blood glucose ([2]; 0 hours (baseline)) was 15.5 and 10.4 and 10.9 (2×) and 11.2, the Blood glucose ([2]; 1 hours) was 10.8 (2×) and 12.2 and 9.3 and 9.7 and the Blood glucose ([2]; 2 hours) was 9.3 and 9.7 and 8.4 and 8.3 and 8. The Blood glucose ([2]; 4 hours) was 8.3 and 7.4 and 7.6 and 9.1 and 7.9, the Blood glucose ([2]; 8 hours) was 15.9 and 11.5 and 12.6 (2×) and 15.3 and the “effect on plasma GLP-1 activity” value (GLP-1 [3]; Balb/C and ob/ob (-/-) mice) was “marginal effect”. For the same compound, the GLP-1 (GLP-1 [3]; 0 hours (baseline)) was 1.6192 and 1.6714 and 1.7758 and 1.3843 and 3.4984, the GLP-1 (GLP-1 [3]; 1 hours) was 2.9503 and 1.4365 and 2.8459 and 1.8541 and 2.8981 and the GLP-1 (GLP-1 [3]; 2 hours) was 3.5245 and 3.4201 and 0.5491 and 2.4022 and 2.2456. For the same compound, the GLP-1 (GLP-1 [3]; 4 hours) was 0.9667 and 2.1673 and 1.2538 and 1.5148 and 2.9503 and the GLP-1 (GLP-1 [3]; 8 hours) was 3.655 and 0.784 and 1.2277 and 3.1852.
